Assay results published in publication PMC9095486, “Reversible RNA phosphorylation stabilizes tRNA for cellular thermotolerance” (Nature, 2022).

How the values were obtained:
TkArkI [1] = target: T1, TkArkI (Thermococcus kodakarensis, UniProt Q5JDQ4); assay: LC-MS of ligands extracted from purified protein; type: binding; details: co-purified from E. coli
T1 construct: gene TK2051; full length, codon-optimised synthetic gene in pE-SUMO-TEV, E. coli; His6-SUMO tag cleaved by Ulp1; residues 1-216 described in structure

TkArkI [2] = target: T1, TkArkI; assay: X-ray crystallography, […] Å; LC-MS of bound ligand; details: co-purified from E. coli; putative ATP-binding pocket

T1 sequence (Q5JDQ4 entry or part of it): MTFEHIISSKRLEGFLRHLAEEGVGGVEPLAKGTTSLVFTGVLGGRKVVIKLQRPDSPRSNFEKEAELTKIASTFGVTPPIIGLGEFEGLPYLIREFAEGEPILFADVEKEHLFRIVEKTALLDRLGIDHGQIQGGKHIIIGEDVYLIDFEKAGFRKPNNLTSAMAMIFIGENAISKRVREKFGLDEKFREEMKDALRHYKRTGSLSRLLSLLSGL

SMILES	LC-MS of ligands extracted from purified protein (TkArkI [1])	X-ray crystallography, 1.8 Å; LC-MS of bound ligand (TkArkI [2])
Nc1nc2c(ncn2[C@H]2C[C@H](O)[C@@H](CO)O2)c(=O)[nH]1 [deoxyguanosine]	We confirmed guanosine (and deoxyguanosine) as a ligand that tightly binds to TkArkI	–
Nc1nc2c(ncn2[C@@H]2O[C@H](CO)[C@@H](O)[C@H]2O)c(=O)[nH]1 [guanosine]	–	we observed a clear electron density for guanosine in the cleft of the two lobes
